Reference: US7541156B1, “Method of identifying antinociceptive compounds using protease activated receptor-2” (priority 2000, dated 2009)
Entries after “also recorded” stand apart in the source; their conditions may differ.

Columns and labels:
PAR-2 [1] = target: T1, PAR-2 (Rattus norvegicus, UniProt Q63645); assay: Intracellular Ca2+ response of primary neuronal cultures; assay type: cell-based; conditions: primary neuronal cultures of adult rat DRGs
T1 construct: assessing the response of primary neuronal cultures to trypsin and AcPep; endogenous in cells; host or cells: primary cultures of adult Sprague-Dawley rat DRG neurons
T1 sequence (Q63645 26-397): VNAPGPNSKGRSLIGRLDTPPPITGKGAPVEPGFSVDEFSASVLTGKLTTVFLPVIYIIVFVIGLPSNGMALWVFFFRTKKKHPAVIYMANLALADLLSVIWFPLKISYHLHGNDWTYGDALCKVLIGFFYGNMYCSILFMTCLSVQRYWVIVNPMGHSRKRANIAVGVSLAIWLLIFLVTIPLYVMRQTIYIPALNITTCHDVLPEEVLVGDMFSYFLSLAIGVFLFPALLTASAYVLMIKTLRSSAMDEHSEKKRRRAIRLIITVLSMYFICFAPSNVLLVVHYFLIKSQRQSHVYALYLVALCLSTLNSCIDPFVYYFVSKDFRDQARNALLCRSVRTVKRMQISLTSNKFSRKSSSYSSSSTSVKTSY
From the text: In the results which follow, it is shown that activated proteases can have direct effects on sensory neurons, mediated by specific receptors. PAR-1 and PAR-2 are present in rat DRGs (Young et al. 2000). The presence of one of these receptors, PAR-2, in sensory neurons is first confirmed by finding evidence of mRNA and protein expression in adult rat thoracic DRGs. The functional implications of PAR-2 expression are then examined by assessing the response of primary neuronal cultures to trypsin and AcPep. Both agonists increased intracellular Ca^2+ confirming previously reported findings that a functional PAR 2 receptor is present in adult rat DRGs (Steinhoff et al. 2000). Trypsin stimulates both PAR-1 and PAR-2 and therefore an increase in intracellular Ca^2+ can be caused by activation of the two different receptors. […] Therefore the increased intracellular Ca^2+ response to AcPep reflects specific PAR-2 mediated activation.
Cell Culture. Primary cultures of rat DRG neurons were prepared from male adult Sprague Dawley rats (200-250 gm). Following enzymatic treatment and dissociation, neurons were spun through a percoll cushion (Hofbauer et al. 1998) and were plated at a density of 10,000-20,000 neurons/well of a 48 well tissue culture plate. […]

[2] = tested on: cultured adult rat thoracic DRG neurons; assay: CGRP release assay in cultured DRG neurons; assay type: cell-based
Protocol: Cell Culture. Primary cultures of rat DRG neurons were prepared from male adult Sprague Dawley rats (200-250 gm). Following enzymatic treatment and dissociation, neurons were spun through a percoll cushion (Hofbauer et al. 1998) and were plated at a density of 10,000-20,000 neurons/well of a 48 well tissue culture plate. Cultures were maintained in DME+10% FCS supplemented with penicillin/streptomycin, 150 μM uridine and 50 μM 5-fluoro-2-deoxyuridine (Nguyen et al. 1999). NGF (murine, recombinant, 2.5S; Promega, Madison, Wis.) was used at 50 ng/ml. Neurons were treated for five days before release experiments or Calcium-imaging studies were performed.
CGRP release assay. Immunoreactive calcitonin gene-related peptide (IR-CGRP) release from DRG cultures was performed as described by Hingtgen et al. (1995). Briefly, neuron cultures were washed with Release Buffer (RB) (25 mM Hepes, pH 7.4, 135 mM NaCl, 3.5 mM KCl, 2.5 mM CaCl2, 1 mM MgCl2, 3.3 mM Glucose, 0.1% BSA, 1 μM phosphoamidon), and were incubated for 10 min at 37° C. in RB plus 0.1% ethanol (Capsaicin vehicle) to measure basal CGRP release. Fresh RB containing the appropriate concentration of activating peptide (AcPep) or control peptide (CoPep) was added for an additional 10 minutes. Peptide treatment was followed by a 10 minute incubation with an appropriate dose of Capsaicin or KCl. IR-CGRP released by neurons was measured by ELISA. Activating peptide and control peptide were prepared by standard solid phase synthesis procedures by the UTMB Core Protein Facility.
CGRP Quantification. CGRP was quantified in a standard sandwich ELISA. In brief, 96-well “U” bottom microtiter ELISA plates (Dynex, Chantilly, Va.) were coated with affinity purified polyclonal rabbit antibody to rat CGRP (Peninsula Labs, Belmont, Calif.) at 3 μg/ml in 0.125M borate buffered saline (pH 8.1) (100 μl/well). The plates were incubated overnight at 37° C. The next day, the plates were washed three times with saline containing 0.05% Tween-20. Purified rat CGRP (Peninsula Labs) was used at a previously standardized concentration range of 25-1 ng/ml in a four-fold dilution to generate a standard curve. An equal volume of the sample was added in duplicate to a seventy-five μl/well of Tween-PBS (pH 7.1) and the plates were incubated for two hours on a shaker at room temperature. The plates were washed 3 times with Tween-PBS and 100 μl/well (0.2 mg/ml; 1:500 dilution) of in-house biotinylated, rabbit anti rat CGRP IgG (Peninsula Labs) was applied and incubated for two hours at room temperature. After three washes 150 μl of 1:1000 diluted streptavidine-horseradish peroxidase conjugate (Zymed, San Fransisco, Calif.) was added to each well and the plates were incubated for 90 min at room temperature. One-hundred-fifty μl/well of the substrate ortho-phenylene diamine dihydrochloride (Sigma Chemicals, St. Louis, Mo.) 0.4 mg/ml in citrate buffer (pH 4.9) was added after plates were washed three more times. Forty μl/100 ml of 30% H2O2 was added fresh to the citrate buffer just before adding to the wells to activate the coloring reaction. The reaction was stopped with 5N H2SO4 (50 μl/well) and the plates were read at 490 nm in an automated ELISA reader (Bio-Tek Instruments, Inc., Winooski, VE). The OD values were plotted against the CGRP standard curve and CGRP immunoreactivity was quantified using the appropriate formula and expressed as nanogram/ml.
Statistics. Release data are presented as the mean± standard error of the mean (SEM) of wells from three separate experiments. To compare the effects of activating peptide and control peptide on subsequent evoked release, an overall test based on the analysis of variance was performed (ANOVA). […] Intraductal injection studies were analyzed using a repeated measure ANOVA and individual means were compared using a Newman-Keuls multiple comparison test. Significance levels were set at p<0.05. […]

PAR-2 [3] = target: T2, PAR-2 (Homo sapiens, UniProt P55085); conditions: Blackhart et al. 1996; cited from earlier work
T2 sequence (P55085 26-397): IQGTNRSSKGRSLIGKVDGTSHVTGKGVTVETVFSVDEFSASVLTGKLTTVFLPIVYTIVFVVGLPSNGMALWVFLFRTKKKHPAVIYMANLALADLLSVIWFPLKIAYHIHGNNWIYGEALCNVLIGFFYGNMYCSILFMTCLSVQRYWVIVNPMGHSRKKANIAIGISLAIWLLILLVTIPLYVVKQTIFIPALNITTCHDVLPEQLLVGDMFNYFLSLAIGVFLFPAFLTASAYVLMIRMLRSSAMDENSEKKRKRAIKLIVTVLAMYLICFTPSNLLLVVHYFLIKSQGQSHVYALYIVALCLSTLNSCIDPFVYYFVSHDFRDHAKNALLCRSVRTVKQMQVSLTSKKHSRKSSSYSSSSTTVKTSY

In the case of “SLIGRL (PEPTIDE (1)..(6) PAR-2 activating peptide; listed as Rattus sp.) [AcPep]”, the “intracellular Ca2+” value (PAR-2 [1]) is reported as “increased”, the “CGRP release induced by Capsaicin (50 nM)” value ([2]; 10 min pretreatment with peptide 10 μM, then Capsaicin 50 nM for 10 min in presence of peptide, mean of wells, three experiments) is reported as 7.3 ng/mL and the “CGRP release induced by KCl (70 mM)” value ([2]; 10 min pretreatment with peptide 10 μM, then KCl 70 mM for 10 min in presence of peptide, mean of wells, three experiments) is reported as 2.7 ng/mL. For the same substance, the “CGRP release by peptide alone (basal release)” value ([2]; peptide 10 μM alone, 10 minute incubation) was “did not significantly increase CGRP release; also recorded: does not induce CGRP release; also recorded: no effect on basal CGRP release”, the “KCl evoked IR-CGRP release, in words, versus CoPep” value ([2]; pre-treatment 10 μM for 10 minutes, KCl 70 mM) was “significantly higher increase; also recorded: significantly enhances” and the “Capsaicin-evoked CGRP release, in words, versus CoPep” value ([2]; pretreatment 10 μM for 10 minutes, Capsaicin 50 nM) was “significant increase; also recorded: significantly enhances”. The “activation of PAR-2” value (PAR-2 [3]) was “only activates PAR-2”.
